Literature values as cited in PMC9516332 (Frontiers in Oncology, 2022).
Where two headings read alike, the source gives them in different places.

Columns and labels:
Conditions in all cases: cited from earlier work
[1] = biological target: T1, panel of 255 wild-type kinases (Homo sapiens, UniProt P53778)
T1 sequence (P53778 1-367): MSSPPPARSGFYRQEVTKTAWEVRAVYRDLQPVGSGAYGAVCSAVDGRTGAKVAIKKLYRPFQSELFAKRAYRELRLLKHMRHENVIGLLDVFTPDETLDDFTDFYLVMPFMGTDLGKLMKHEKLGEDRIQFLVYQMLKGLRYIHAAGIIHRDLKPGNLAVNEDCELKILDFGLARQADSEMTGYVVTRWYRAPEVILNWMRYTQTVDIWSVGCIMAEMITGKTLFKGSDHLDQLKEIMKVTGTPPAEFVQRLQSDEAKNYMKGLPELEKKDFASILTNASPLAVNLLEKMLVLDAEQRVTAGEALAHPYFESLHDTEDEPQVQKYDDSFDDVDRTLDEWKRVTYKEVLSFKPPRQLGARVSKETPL

[2] = biological target: panel of 255 wild-type kinases (Homo sapiens, UniProt Q00534)
[3] = biological target: T2, panel of 255 wild-type kinases (Homo sapiens, UniProt O14757)
T2 sequence (O14757 1-476): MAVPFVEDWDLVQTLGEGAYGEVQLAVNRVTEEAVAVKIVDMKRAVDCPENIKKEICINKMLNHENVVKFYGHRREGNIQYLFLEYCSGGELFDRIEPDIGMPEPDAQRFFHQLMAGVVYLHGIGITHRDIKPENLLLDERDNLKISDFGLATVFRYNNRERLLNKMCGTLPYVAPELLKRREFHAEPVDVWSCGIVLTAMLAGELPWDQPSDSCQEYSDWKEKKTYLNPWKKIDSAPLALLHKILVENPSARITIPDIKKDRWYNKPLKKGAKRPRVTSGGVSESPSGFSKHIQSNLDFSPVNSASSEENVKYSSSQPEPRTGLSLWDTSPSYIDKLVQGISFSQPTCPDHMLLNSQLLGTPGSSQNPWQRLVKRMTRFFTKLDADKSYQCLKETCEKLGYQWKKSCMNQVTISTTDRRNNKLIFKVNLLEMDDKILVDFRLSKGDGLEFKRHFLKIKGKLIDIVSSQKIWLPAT

[4] = biological target: panel of 255 wild-type kinases (Homo sapiens, UniProt P22607)
[5] = biological target: panel of 255 wild-type kinases (Homo sapiens, UniProt P53350)
[6] = biological target: panel of 255 wild-type kinases (Homo sapiens, UniProt Q13627)
[7] = biological target: T3, panel of 255 wild-type kinases (Homo sapiens, UniProt Q8IW41)
T3 sequence (Q8IW41 1-473): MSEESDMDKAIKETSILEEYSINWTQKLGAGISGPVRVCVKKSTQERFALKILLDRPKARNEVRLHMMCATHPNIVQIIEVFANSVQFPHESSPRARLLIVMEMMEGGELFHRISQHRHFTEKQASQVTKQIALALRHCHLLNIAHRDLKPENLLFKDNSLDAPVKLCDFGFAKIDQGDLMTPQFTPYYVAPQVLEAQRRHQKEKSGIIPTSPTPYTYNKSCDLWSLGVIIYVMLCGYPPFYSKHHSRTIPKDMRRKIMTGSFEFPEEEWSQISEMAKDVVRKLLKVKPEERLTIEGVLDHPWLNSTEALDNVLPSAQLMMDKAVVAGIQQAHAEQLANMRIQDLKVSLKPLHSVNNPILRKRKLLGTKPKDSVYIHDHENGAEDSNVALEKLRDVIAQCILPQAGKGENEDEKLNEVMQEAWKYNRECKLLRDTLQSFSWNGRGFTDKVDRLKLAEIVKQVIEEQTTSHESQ

[8] = biological target: panel of 255 wild-type kinases (Homo sapiens, UniProt P17612)
[9] = biological target: panel of 255 wild-type kinases (Homo sapiens, UniProt Q14012)
[10] = biological target: panel of 255 wild-type kinases (Homo sapiens, UniProt P78368)
[11] = biological target: panel of 255 wild-type kinases (Homo sapiens, UniProt Q13177)
[12] = biological target: panel of 255 wild-type kinases (Homo sapiens, UniProt Q7KZI7)
[13] = biological target: panel of 255 wild-type kinases (Homo sapiens, UniProt Q16654)
[14] = biological target: panel of 255 wild-type kinases (Homo sapiens, UniProt P31749)
[15] = p38γ, 1 µmol/L single concentration, ref DOI: 10.1371/journal.pone.0092146
[16] = CDK6/CycD3 kinase assay, 1 µmol/L single concentration, ref DOI: 10.1371/journal.pone.0092146
[17] = CHK1 kinase assay, 1 µmol/L single concentration, ref DOI: 10.1371/journal.pone.0092146
[18] = kinase FGFR3, 1 µmol/L single concentration, ref DOI: 10.1371/journal.pone.0092146
[19] = kinase PLK1, 1 µmol/L single concentration, ref DOI: 10.1371/journal.pone.0092146
[20] = kinase DYRK1A, 1 µmol/L single concentration, ref DOI: 10.1371/journal.pone.0092146
[21] = MAPKAPK5, 1 µmol/L single concentration, ref DOI: 10.1371/journal.pone.0092146
[22] = kinase PKACα, 1 µmol/L single concentration, ref DOI: 10.1371/journal.pone.0092146
[23] = CaMK1α kinase assay, 1 µmol/L single concentration, ref DOI: 10.1371/journal.pone.0092146
[24] = kinase CK1γ2, 1 µmol/L single concentration, ref DOI: 10.1371/journal.pone.0092146
[25] = PAK2, 1 µmol/L single concentration, ref DOI: 10.1371/journal.pone.0092146
[26] = MARK2, 1 µmol/L single concentration, ref DOI: 10.1371/journal.pone.0092146
[27] = kinase PDHK4, 1 µmol/L single concentration, ref DOI: 10.1371/journal.pone.0092146
[28] = AKT1 kinase assay, 1 µmol/L single concentration, ref DOI: 10.1371/journal.pone.0092146

| SMILES | %-inhibition, p38γ [1, 15] [%] | %-inhibition CDK6/CycD3 [2, 16] [%] | %-inhibition CHK1 [3, 17] [%] | %-inhibition at 1 µmol/L, FGFR3 [4, 18] [%] | %-inhibition at 1 µmol/L, PLK1 [5, 19] [%] | %-inhibition at 1 µmol/L, DYRK1A [6, 20] [%] | %-inhibition, MAPKAPK5 [7, 21] [%] | %-inhibition at 1 µmol/L, PKACα [8, 22] [%] | %-inhibition CaMK1α [9, 23] [%] | %-inhibition at 1 µmol/L, CK1γ2 [10, 24] [%] | %-inhibition, PAK2 [11, 25] [%] | %-inhibition, MARK2 [12, 26] [%] | %-inhibition at 1 µmol/L, PDHK4 [13, 27] [%] | %-inhibition AKT1 [14, 28] [%] | further results |
| --- | --- | --- | --- | --- | --- | --- | --- | --- | --- | --- | --- | --- | --- | --- | --- |
| COc1cc(N2CCC(N3CCN(C)CC3)CC2)ccc1Nc1ncc(Cl)c(Nc2ccccc2P(C)(C)=O)n1 [brigatinib] |  |  |  |  |  |  |  |  |  |  |  |  |  |  | %-inhibition, p38γ [1]: 3%; %-inhibition CDK6/CycD3 [2]: 18%; %-inhibition CHK1 [3]: 96%; %-inhibition at 1 µmol/L, FGFR3 [4]: 93%; %-inhibition at 1 µmol/L, PLK1 [5]: 49%; %-inhibition at 1 µmol/L, DYRK1A [6]: 38%; %-inhibition, MAPKAPK5 [7]: 3.41%; %-inhibition at 1 µmol/L, PKACα [8]: 17%; %-inhibition CaMK1α [9]: 28%; %-inhibition at 1 µmol/L, CK1γ2 [10]: -2.5%; %-inhibition, PAK2 [11]: 16%; %-inhibition, MARK2 [12]: 96%; %-inhibition at 1 µmol/L, PDHK4 [13]: 5%; %-inhibition AKT1 [14]: 1.5% |
| CCCS(=O)(=O)Nc1ccc(F)c(C(=O)c2c[nH]c3ncc(-c4ccc(Cl)cc4)cc23)c1F [vemurafenib] | -0.299 | 2.43 | 4 | 15 | -4 | -18 | 12 | -4 | -3.18 | 0.506 | 13 | -0.167 | -1.4 | -4.52 |  |
| CCc1cc2c(cc1N1CCC(N3CCOCC3)CC1)C(C)(C)c1[nH]c3cc(C#N)ccc3c1C2=O [alectinib] |  |  |  |  |  |  |  |  |  |  |  |  |  |  | %-inhibition, p38γ ([1]; p38γ, 1 µmol/L single concentration, ref DOI: 10.1158/1535-7163.MCT-18-0877): 1.73%; %-inhibition CDK6/CycD3 ([2]; CDK6/CycD3 kinase assay, 1 µmol/L single concentration, ref DOI: 10.1158/1535-7163.MCT-18-0877): -0.448%; %-inhibition CHK1 ([3]; CHK1 kinase assay, 1 µmol/L single concentration, ref DOI: 10.1158/1535-7163.MCT-18-0877): 0.288%; %-inhibition at 1 µmol/L, FGFR3 ([4]; kinase FGFR3, 1 µmol/L single concentration, ref DOI: 10.1158/1535-7163.MCT-18-0877): 8%; %-inhibition at 1 µmol/L, PLK1 ([5]; kinase PLK1, 1 µmol/L single concentration, ref DOI: 10.1158/1535-7163.MCT-18-0877): -1.76%; %-inhibition at 1 µmol/L, DYRK1A ([6]; kinase DYRK1A, 1 µmol/L single concentration, ref DOI: 10.1158/1535-7163.MCT-18-0877): 4%; %-inhibition, MAPKAPK5 ([7]; MAPKAPK5, 1 µmol/L single concentration, ref DOI: 10.1158/1535-7163.MCT-18-0877): -2.38%; %-inhibition at 1 µmol/L, PKACα ([8]; kinase PKACα, 1 µmol/L single concentration, ref DOI: 10.1158/1535-7163.MCT-18-0877): 5%; %-inhibition CaMK1α ([9]; CaMK1α kinase assay, 1 µmol/L single concentration, ref DOI: 10.1158/1535-7163.MCT-18-0877): 2.11%; %-inhibition at 1 µmol/L, CK1γ2 ([10]; kinase CK1γ2, 1 µmol/L single concentration, ref DOI: 10.1158/1535-7163.MCT-18-0877): -0.041%; %-inhibition, PAK2 ([11]; PAK2, 1 µmol/L single concentration, ref DOI: 10.1158/1535-7163.MCT-18-0877): -29%; %-inhibition, MARK2 ([12]; MARK2, 1 µmol/L single concentration, ref DOI: 10.1158/1535-7163.MCT-18-0877): 5.66%; %-inhibition at 1 µmol/L, PDHK4 ([13]; kinase PDHK4, 1 µmol/L single concentration, ref DOI: 10.1158/1535-7163.MCT-18-0877): 1.7%; %-inhibition AKT1 ([14]; AKT1 kinase assay, 1 µmol/L single concentration, ref DOI: 10.1158/1535-7163.MCT-18-0877): 3.25% |
| CC(=O)Nc1cccc(-n2c(=O)n(C3CC3)c(=O)c3c(Nc4ccc(I)cc4F)n(C)c(=O)c(C)c32)c1 [trametinib] | 0.684 | -4.23 | -0.719 | -5.68 | -9 | -1.23 | -2.22 | 8.52 | -2 | -2.15 | -9 | -6 | -1.65 | -3 |  |
